Reference: patent publication US20010009926A1, “Mesozeaxanthin formulations for treatment of retinal disorders” (THE HOWARD FOUNDATION, priority 1993, published 2001)

How the values were obtained:
Assay type in all cases: in vivo, human
macular pigment [1] = assay: Macular pigment optical density by heterochromatic flicker photometry during lutein supplementation; details: 30 mg/day lutein ester, increased from 0.3
[2] = Skin colour observation during lutein supplementation; details: each subject; after several weeks of administration, 30 mg lutein per day
macular pigment [3] = assay: Macular pigment optical density by heterochromatic flicker photometry during lutein supplementation
Experimental: A trial was conducted to determine if dietary supplementation with lutein and zeaxanthin effectively can change the pigment levels in the macula. The optical density of the macula pigment was measured for each subject using the method of flicker photometry (Bone and Sparrock 1971; Bone et al 1992). The concentration of pigment in the macula is proportioned to its optical density and the actual amount of pigment was assumed to be proportional to concentration. Thus, optical density was taken as a measure of the total amount of pigment.
(§1) Two healthy adult males (of age/weight 42 year/60 kg and 51 years/61 kg) ingested the equivalent of 30 mg of lutein per day in the form of lutein esters (source: marigold flowers) suspended in 2 ml of canola oil. This was continued over a period of 138 days and then the dose of lutein was discontinued. Chemical analysis has shown that the product contains approximately 97% lutein—and 3% zeaxanthin. Fasting serum lutein/zeaxanthin levels of both individuals were determined by conventional HPLC on the morning of the first dose as a measure of base line. Blood samples were drawn at 2-3 hour intervals throughout the first day for both subjects and then daily for the next three days. Following the first week of supplementation, blood samples were drawn weekly. Blood was collected into a standard Vacutainer serum separator tube containing no anticoagulant. After allowing about 30 min for coagulation, the sample was centrifuged for 10 minutes and the serum removed by pipette. Serum samples were stored at −20° C. prior to analysis. Carotenoids ware extracted from the serum by a minor modification of widely used methods (Guiliano et al, 1993; Handelmann et al, 1992), 200 μl aliquots of serum were diluted with 2 mL of 50% ethanol/water to ensure precipitation of protein components. 20 μl of an internal standard, monohexyl lutein ether, containing about 90 ng, was added to the solution at this point for quantification of the caratenoids by HPLC. This solution was extracted 3 times with 2 mL portions of hexane by vortexing the sample for 1 min followed by centrifuging for 5 minutes and pipetting off the hexane layer. The three portions of hexane were dried under a stream of nitrogen gas and stared under nitrogen at −20° C. until analysis was completed.
The optical density of the macular pigment was measured for each subject using the method of heterochomatic flicker photometry (Bone and Sparrock, 1971; Bone et al, 1992). The concentration of pigment in the macula is proportional to its optical density and the actual amount of pigment was assumed to be proportional to concentration. Thus optical density was taken to be a measure of the total amount of pigment.
In the flicker method, a small visual stimulus is presented to the eye which alternates in wavelength between 460 nm, the peak absorbance wavelength of the macular pigment, and 540 nm where pigment absorbance is zero (Bone et al., 1992). Above a certain frequency, color fusion occurs but the stimulus continues to flicker. At a higher frequency, a critical condition can be reached where flicker can be eliminated only if the two wavelength components are matched in luminance. If the stimulus is viewed peripherally, so that the image falls outside the macula, neither wavelength is attenuated by the macular pigment. However, if the stimulus is viewed centrally, the intensity of the 460 nm light must be increased to compensate for absorption by the macular pigment in order to achieve a luminance match. Thus it is possible to determine the optical density of a subject's macular pigment at the peak wavelength, or indeed any other wavelength.
The apparatus consisted of a two-channel Maxwellian view system based on a single light source, a 75 W xenon arc lamp. The wavelengths of the two channels were determined by 460 nm and 540 nm interference filters respectively, having half-widths of 7 and 9 nm. […]

[4] = Serum lutein by HPLC during oral lutein ester supplementation; details: subjects three, equivalent of 30 mg lutein per day as lutein esters in canola oil, within the first week
Experimental: Serum lutein and zeaxanthin was measured by conventional HPLC.
as §1, with “Carotenoids ware extracted from the serum by a minor modification of widely used methods (Guiliano et al, 1993; Handelmann et al, 1992), 200 μl aliquots of serum were diluted with 2 mL of 50% ethanol/water to ensure precipitation of protein components.” left out, “This solution was extracted 3 times with 2 mL portions of hexane by vortexing the sample for 1 min followed by centrifuging for 5 minutes and pipetting off the hexane layer. The three portions of hexane were dried under a stream of nitrogen gas and stared under nitrogen at −20° C. until analysis was completed.” left out

Compound	macular pigment optical density (macular pigment [1]; subject one, both eyes, after 75 days, then plateau)	macular pigment optical density (macular pigment [1]; subject two, left eye only)	skin colour of the palms of the hands [2]	day until which optical density continued to rise before plateau (macular pigment [3]; subject four, both eyes, dose discontinued at day 138)	slope of macular pigment optical density (linear least squares fit) (macular pigment [3]; subject four, left eye, day -7 to day 83 of lutein supplementation)	macular pigment optical density, final average (macular pigment [3]; subject four, left eye, initial mean 0.76, p<0.001)	slope of macular pigment optical density (linear least squares fit) (macular pigment [3]; subject four, right eye, day -7 to day 83 of lutein supplementation)	macular pigment optical density, final average (macular pigment [3]; subject four, right eye, initial mean 0.66, p<0.001)	macular pigment optical density, final average (macular pigment [3]; subject three, left eye, average of 15 measurements over 18 days at end of experiment, initial values 0.57 and 0.58, p<0.0005)	slope of macular pigment optical density (linear least squares fit) (macular pigment [3]; subject three, left eye, day -7 to day 72 of lutein supplementation)	macular pigment optical density, final average (macular pigment [3]; subject three, right eye, average of 15 measurements over 18 days at end of experiment, initial values 0.57 and 0.58, p<0.0005)	day until which optical density continued to rise before plateau (macular pigment [3]; subject three, dose of lutein discontinued at day 138)	increase in serum lutein concentration (factor) [4]
lutein ester	0.5	0.5	–	–	–	–	–	–	–	–	–	–	–
CC1=C[C@H](O)CC(C)(C)[C@H]1/C=C/C(C)=C/C=C/C(C)=C/C=C/C=C(C)/C=C/C=C(C)/C=C/C1=C(C)C[C@@H](O)CC1(C)C [lutein]	–	–	turned a noticeable yellow colour	200 days	3.1×10^−3 absorbance units per week	0.79	2.3×10^−3 absorbance units per week	0.70	0.70	15.3×10^−3 absorbance units per week	0.67	~180 days	about 10 times
